The record followed here is patent US20260250318A1, “COMPOSITIONS AND METHODS FOR CROSSING THE BLOOD BRAIN BARRIER” (VOYAGER THERAPEUTICS, INC., priority 2022, published 2026).

For the assay, the system named is brains, heart, liver, muscle, and DRG of the NHPs. The assay is described as follows: Maturation of TTM-001 and TTM-002 capsids, NGS enrichment in NHP tissues. It counts as in vivo. The settings on record: NGS, relative to AAV9 control; for Fold Enrichment relative to AAV9, Liver RNA (NHP): TTM-001 and TTM-002 matured AAV capsid variants. The essentials:
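Variants carry mutations within and flanking the loop IV peptide insert: positions 450–466 were triplet-randomized, while positions 449–466 received low-frequency point mutations. The combined pool went into two NHPs, and each peptide was scored by NGS enrichment ratio against AAV9.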

Consider KTINGSGSPHSSCTNQQT, for which the “Fold Enrichment relative to AAV9, DRG (NHP)” value came out at 0.000 fold; the “Fold Enrichment relative to AAV9, Brain (NHP)” value is on record as 0.000 fold; the “Fold Enrichment relative to AAV9, Heart (NHP)” value was 0.000 fold; the “Fold Enrichment relative to AAV9, Liver DNA (NHP)” value is reported as 3.363 fold. Moreover, the “Fold Enrichment relative to AAV9, Liver RNA (NHP)” value was determined as 11.382 fold and the “Fold Enrichment relative to AAV9, Muscle (NHP)” value came to 0.000 fold.

Take KTINGSGSPHSKRSYQQT: the “Fold Enrichment relative to AAV9, DRG (NHP)” value was found to be 0.000 fold; the “Fold Enrichment relative to AAV9, Brain (NHP)” value is given as 0.000 fold; the “Fold Enrichment relative to AAV9, Heart (NHP)” value is given as 0.000 fold; the “Fold Enrichment relative to AAV9, Liver DNA (NHP)” value was 2.116 fold. Also, the “Fold Enrichment relative to AAV9, Liver RNA (NHP)” value worked out at 28.973 fold and the “Fold Enrichment relative to AAV9, Muscle (NHP)” value is given as 0.000 fold.

In the case of KTINGSGSPHSKALRCQT, the “Fold Enrichment relative to AAV9, DRG (NHP)” value is on record as 0.000 fold; the “Fold Enrichment relative to AAV9, Brain (NHP)” value amounted to 0.000 fold; the “Fold Enrichment relative to AAV9, Heart (NHP)” value turned out to be 0.000 fold; the “Fold Enrichment relative to AAV9, Liver DNA (NHP)” value came out at 1.892 fold. For the same sequence, the “Fold Enrichment relative to AAV9, Liver RNA (NHP)” value worked out at 17.283 fold and the “Fold Enrichment relative to AAV9, Muscle (NHP)” value is recorded as 0.000 fold.

Consider KTINGSGSPHSKFFIQQT, for which the “Fold Enrichment relative to AAV9, DRG (NHP)” value is listed as 0.000 fold; the “Fold Enrichment relative to AAV9, Brain (NHP)” value was 0.000 fold; the “Fold Enrichment relative to AAV9, Heart (NHP)” value amounted to 0.000 fold; the “Fold Enrichment relative to AAV9, Liver DNA (NHP)” value is 6.916 fold. Moreover, the “Fold Enrichment relative to AAV9, Liver RNA (NHP)” value stood at 63.255 fold and the “Fold Enrichment relative to AAV9, Muscle (NHP)” value came out at 0.000 fold.

In the case of KTIKRYGSPHSKAQNQQT, the “Fold Enrichment relative to AAV9, DRG (NHP)” value was 0.000 fold; the “Fold Enrichment relative to AAV9, Brain (NHP)” value is 0.000 fold; the “Fold Enrichment relative to AAV9, Heart (NHP)” value is reported as 0.000 fold; the “Fold Enrichment relative to AAV9, Liver DNA (NHP)” value is 2.022 fold. Also, the “Fold Enrichment relative to AAV9, Liver RNA (NHP)” value was determined as 11.461 fold and the “Fold Enrichment relative to AAV9, Muscle (NHP)” value turned out to be 0.000 fold.

Regarding KTINGSGSPHSFFGNQQT, the “Fold Enrichment relative to AAV9, DRG (NHP)” value is 0.000 fold; the “Fold Enrichment relative to AAV9, Brain (NHP)” value stood at 0.000 fold; the “Fold Enrichment relative to AAV9, Heart (NHP)” value is given as 0.000 fold; the “Fold Enrichment relative to AAV9, Liver DNA (NHP)” value worked out at 6.101 fold. Further, the “Fold Enrichment relative to AAV9, Liver RNA (NHP)” value is recorded as 38.088 fold and the “Fold Enrichment relative to AAV9, Muscle (NHP)” value came out at 0.000 fold.

Consider KTINGRPSPHGKAQNQQT, for which the “Fold Enrichment relative to AAV9, DRG (NHP)” value was determined as 0.000 fold; the “Fold Enrichment relative to AAV9, Brain (NHP)” value was found to be 0.000 fold; the “Fold Enrichment relative to AAV9, Heart (NHP)” value was found to be 0.000 fold; the “Fold Enrichment relative to AAV9, Liver DNA (NHP)” value is 0.705 fold. Also, the “Fold Enrichment relative to AAV9, Liver RNA (NHP)” value amounted to 14.442 fold and the “Fold Enrichment relative to AAV9, Muscle (NHP)” value stood at 0.000 fold.

With KKHLGSGSPHSKAQNQQT, the “Fold Enrichment relative to AAV9, DRG (NHP)” value is given as 0.000 fold; the “Fold Enrichment relative to AAV9, Brain (NHP)” value is reported as 0.000 fold; the “Fold Enrichment relative to AAV9, Heart (NHP)” value is on record as 0.000 fold; the “Fold Enrichment relative to AAV9, Liver DNA (NHP)” value is listed as 0.658 fold. The “Fold Enrichment relative to AAV9, Liver RNA (NHP)” value amounted to 18.521 fold and the “Fold Enrichment relative to AAV9, Muscle (NHP)” value was found to be 0.000 fold.

For the sequence KTINGSGSPHSKGCTQQT, the “Fold Enrichment relative to AAV9, DRG (NHP)” value stood at 0.000 fold; the “Fold Enrichment relative to AAV9, Brain (NHP)” value is on record as 0.000 fold; the “Fold Enrichment relative to AAV9, Heart (NHP)” value is 0.000 fold; the “Fold Enrichment relative to AAV9, Liver DNA (NHP)” value is on record as 0.529 fold. The “Fold Enrichment relative to AAV9, Liver RNA (NHP)” value came out at 26.068 fold and the “Fold Enrichment relative to AAV9, Muscle (NHP)” value turned out to be 0.000 fold.

On to KTINGSGSPHSYTRNQQT, for which the “Fold Enrichment relative to AAV9, DRG (NHP)” value was found to be 0.000 fold; the “Fold Enrichment relative to AAV9, Brain (NHP)” value came out at 0.000 fold; the “Fold Enrichment relative to AAV9, Heart (NHP)” value amounted to 0.000 fold; the “Fold Enrichment relative to AAV9, Liver DNA (NHP)” value is 1.986 fold. In addition, the “Fold Enrichment relative to AAV9, Liver RNA (NHP)” value came out at 14.535 fold and the “Fold Enrichment relative to AAV9, Muscle (NHP)” value was 0.000 fold.

As to KTINGSGSPHSFRYNQQT, the “Fold Enrichment relative to AAV9, DRG (NHP)” value amounted to 0.000 fold; the “Fold Enrichment relative to AAV9, Brain (NHP)” value was 0.000 fold; the “Fold Enrichment relative to AAV9, Heart (NHP)” value turned out to be 0.000 fold; the “Fold Enrichment relative to AAV9, Liver DNA (NHP)” value was determined as 4.148 fold. Besides, the “Fold Enrichment relative to AAV9, Liver RNA (NHP)” value is listed as 21.097 fold and the “Fold Enrichment relative to AAV9, Muscle (NHP)” value was determined as 0.000 fold.

For the sequence KTINGLVSPHRKAQNQQT, the “Fold Enrichment relative to AAV9, DRG (NHP)” value amounted to 0.000 fold; the “Fold Enrichment relative to AAV9, Brain (NHP)” value was 0.000 fold; the “Fold Enrichment relative to AAV9, Heart (NHP)” value turned out to be 0.000 fold; the “Fold Enrichment relative to AAV9, Liver DNA (NHP)” value is on record as 2.739 fold. Also, the “Fold Enrichment relative to AAV9, Liver RNA (NHP)” value stood at 23.417 fold and the “Fold Enrichment relative to AAV9, Muscle (NHP)” value is 0.000 fold.

On to “KYYTGSGSPHSKAQNQQT (peptide inserted in AAV capsid)”, for which the “Fold Enrichment relative to AAV9, DRG (NHP)” value is listed as 0.000 fold; the “Fold Enrichment relative to AAV9, Brain (NHP)” value came to 0.000 fold; the “Fold Enrichment relative to AAV9, Heart (NHP)” value was 0.000 fold; the “Fold Enrichment relative to AAV9, Liver DNA (NHP)” value worked out at 1.199 fold. For the same sequence, the “Fold Enrichment relative to AAV9, Liver RNA (NHP)” value is reported as 38.777 fold and the “Fold Enrichment relative to AAV9, Muscle (NHP)” value worked out at 0.000 fold.

Turning to KTINGSGSPHSCSRNQQT, the “Fold Enrichment relative to AAV9, DRG (NHP)” value was 0.000 fold; the “Fold Enrichment relative to AAV9, Brain (NHP)” value amounted to 0.000 fold; the “Fold Enrichment relative to AAV9, Heart (NHP)” value is reported as 0.000 fold; the “Fold Enrichment relative to AAV9, Liver DNA (NHP)” value was determined as 4.293 fold. The “Fold Enrichment relative to AAV9, Liver RNA (NHP)” value was found to be 40.372 fold and the “Fold Enrichment relative to AAV9, Muscle (NHP)” value is on record as 0.000 fold.

KTINGSGSPHSYAFNQQT: the “Fold Enrichment relative to AAV9, DRG (NHP)” value came out at 0.000 fold; the “Fold Enrichment relative to AAV9, Brain (NHP)” value turned out to be 0.000 fold; the “Fold Enrichment relative to AAV9, Heart (NHP)” value was 0.000 fold; the “Fold Enrichment relative to AAV9, Liver DNA (NHP)” value was 1.742 fold. In addition, the “Fold Enrichment relative to AAV9, Liver RNA (NHP)” value is listed as 43.037 fold and the “Fold Enrichment relative to AAV9, Muscle (NHP)” value was determined as 0.000 fold.

In the case of KTINGSGSPHFYRQNQQT, the “Fold Enrichment relative to AAV9, DRG (NHP)” value was found to be 0.000 fold; the “Fold Enrichment relative to AAV9, Brain (NHP)” value turned out to be 0.000 fold; the “Fold Enrichment relative to AAV9, Heart (NHP)” value is given as 0.000 fold; the “Fold Enrichment relative to AAV9, Liver DNA (NHP)” value is listed as 9.342 fold. Besides, the “Fold Enrichment relative to AAV9, Liver RNA (NHP)” value is recorded as 31.724 fold and the “Fold Enrichment relative to AAV9, Muscle (NHP)” value is 0.000 fold.

Consider KTINGSGSPHSCHQNQQT, for which the “Fold Enrichment relative to AAV9, DRG (NHP)” value was 0.000 fold; the “Fold Enrichment relative to AAV9, Brain (NHP)” value worked out at 0.000 fold; the “Fold Enrichment relative to AAV9, Heart (NHP)” value worked out at 0.000 fold; the “Fold Enrichment relative to AAV9, Liver DNA (NHP)” value is on record as 8.562 fold. The “Fold Enrichment relative to AAV9, Liver RNA (NHP)” value worked out at 56.242 fold and the “Fold Enrichment relative to AAV9, Muscle (NHP)” value is reported as 0.000 fold.

KTINGSGSPHSKAARRQT: the “Fold Enrichment relative to AAV9, DRG (NHP)” value was 0.000 fold; the “Fold Enrichment relative to AAV9, Brain (NHP)” value worked out at 0.000 fold; the “Fold Enrichment relative to AAV9, Heart (NHP)” value is 0.000 fold; the “Fold Enrichment relative to AAV9, Liver DNA (NHP)” value worked out at 6.633 fold. Besides, the “Fold Enrichment relative to AAV9, Liver RNA (NHP)” value was 19.998 fold and the “Fold Enrichment relative to AAV9, Muscle (NHP)” value is 0.000 fold.
